Here are results for 4 compounds from ChEMBL document CHEMBL1150027, “Apigenin-7-O--D-glucopyranoside, an anti-HIV principle from Kummerowia striata” (Bioorg Med Chem Lett, 1994).

Converted amounts (≈) assume the structure as drawn.

Series [1] can be described thus: Ratio of IC50 to EC50 was expressed as therapeutic index. The settings on record: read-out: TI.
Series [2] relates to H9. Put plainly: Inhibitory activity against H9 cells uninfected with HIV-1. The format is functional, cell-based. Particulars: Homo sapiens.
Series [3] has as its system H9. Nature of the series: Inhibitory activity against HIV-1 IIIB replication in H9 cell line. The settings on record: Homo sapiens. The class given is functional, cell-based.

Broadly, the IC50 is the concentration that inhibits the measured activity by half. High values mean weaker potency, low ones greater potency. Broadly, the EC50 is the concentration that produces a half-maximal response. Turning to `O=c1cc(-c2ccc(O)cc2)oc2cc(O)cc(O)c12` [APIGENIN], the selectivity ratio in series [1] worked out at 4. In the series on H9 [2], this compound registered an IC50 of 35 µg/mL (≈ 130 µM). This compound displayed an EC50 in the series on H9 [3] of 9 µg/mL (≈ 33.3 µM).
For `O=c1cc(-c2ccc(O)cc2)oc2cc(O[C@@H]3O[C@H](CO)[C@@H](O)[C@H](O)[C@H]3O)cc(O)c12` [APIGETRIN], in that order: above 55.6, above 100 µg/mL and 1.8 µg/mL (≈ 4.16 µM).
Taken in the same sequence, the figures for `O=c1c(O[C@@H]2O[C@H](CO)[C@@H](O)[C@H](O)[C@H]2O)c(-c2ccc(O)cc2)oc2cc(O)cc(O)c12` [ASTRAGALIN] were below 1.25, below 100 µg/mL and 80 µg/mL (≈ 178 µM).
For `O=c1c(O)c(-c2ccc(O)c(O)c2)oc2cc(O)cc(O)c12` [QUERCETIN], in that order: below 2.5, below 4 µg/mL and 1.6 µg/mL (≈ 5.29 µM).
